From patent publication US6846803B1, “Antagonists specific for the corticotropin-releasing factor receptor type 2 (CRFR2)” (priority 1998, dated 2005) come the findings set out here.

Where two headings read alike, the source gives them in different places. Residues, ends and D or L forms follow the SMILES beside them. No end group written: not given here.

Assay [1] concerns the target T1, rCRFR1 (Rattus norvegicus, UniProt P35353).
T1 construct: expressed in transfected cells; host or cells: HEK 293 cells, stably transfected (HEK-rCRFR1)
T1 sequence (P35353 24-415): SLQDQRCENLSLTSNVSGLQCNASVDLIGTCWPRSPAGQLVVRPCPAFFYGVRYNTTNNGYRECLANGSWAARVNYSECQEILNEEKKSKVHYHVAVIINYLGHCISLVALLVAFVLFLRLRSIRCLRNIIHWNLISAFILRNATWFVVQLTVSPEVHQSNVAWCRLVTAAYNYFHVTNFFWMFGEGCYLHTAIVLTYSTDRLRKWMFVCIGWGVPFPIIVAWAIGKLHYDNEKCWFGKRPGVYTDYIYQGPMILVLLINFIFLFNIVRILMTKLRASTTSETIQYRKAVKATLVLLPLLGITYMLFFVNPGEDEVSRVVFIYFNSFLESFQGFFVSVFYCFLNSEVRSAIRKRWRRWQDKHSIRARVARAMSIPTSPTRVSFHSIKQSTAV
In words: Displacement of [^125I-Tyr^0]oCRF from membranes of HEK-rCRFR1 cells. Format: binding. As to the method: (§1) Binding assays were performed in 96-well MultiScreen plates (Millipore, Eschborn, Germany) with GF/B filters (pore size 1.0 μm). […] After incubation (60 min, 23° C.), membrane suspension was aspirated through the plate, followed by two washes with assay buffer (0.2 ml, 23°). Radioactivity of the punched filters was measured with a 1470 WIZARD automatic gamma counter (Berthold, Hannover). […] Statistical analysis was performed with ANOVA, and significant differences between groups were determined by post hoc comparison using the Dunn test.
(§2) Membrane homogenates of human embryonic kidney (HEK) 293 cells stably transfected with cDNA coding for rat CRF receptor, type 1 (rCRFR1) or mouse CRF receptor, type 2β (mCRFR2β) were prepared according to standard protocols (see, e.g., Sambrook et al., Molecular Cloning: A Laboratory Manual, 2nd. Edition, Cold Spring Habor Laboratory Press, Cold Spring Habor, N.Y., 1989; Ausubel et al., Current Protocols in Molecular Biology, Green Publishing Associates and Wiley Interscience, NY, 1989).

In assay [2] the target is T2, mCRFR2β (Mus musculus, UniProt Q60748).
T2 construct: expressed in transfected cells; host or cells: HEK 293 cells, stably transfected (HEK-mCRFR2β); membrane homogenates
The experiment in a line: cAMP stimulation / inhibition of Svg-stimulated cAMP production in HEK-mCRFR2β cells. In kind it is cell-based. As to the method: (§3) HEK-rCRFR1 cells or HEK-mCRFR2β cells were incubated with different CRF agonists in the presence or absence of 1 μM or 10 nM antagonist, or CRF antagonist (c=1 μM) alone. After removal of the medium, cells were lyzed with aqueous 6% trichloroacetic acid (5 min, 100° C.) (Rühmann, A., A. K. E. Köpke, F. M. Dautzenberg, and J. Spiess, Proc. Natl. Acad. Sci. USA 93: 10609-10613, 1996). The cell lysates were stored at −70° C. until assayed with a RIA kit (Amersham, Little Chalfont). […] Statistical significance was determined across groups with ANOVA, and significant differences between groups were determined by post hoc comparison using the Dunn test.
(§4) Intrinsic activities were measured at peptide concentrations generating maximal formation of cAMP in HEK-rCRFR1 or HEK-mCRFR2β cells.
Background: cAMP levels reflect the balance of adenylyl cyclase and phosphodiesterase activity.
Target sequence in this assay (Q60748 1-431 isoform Q60748-2): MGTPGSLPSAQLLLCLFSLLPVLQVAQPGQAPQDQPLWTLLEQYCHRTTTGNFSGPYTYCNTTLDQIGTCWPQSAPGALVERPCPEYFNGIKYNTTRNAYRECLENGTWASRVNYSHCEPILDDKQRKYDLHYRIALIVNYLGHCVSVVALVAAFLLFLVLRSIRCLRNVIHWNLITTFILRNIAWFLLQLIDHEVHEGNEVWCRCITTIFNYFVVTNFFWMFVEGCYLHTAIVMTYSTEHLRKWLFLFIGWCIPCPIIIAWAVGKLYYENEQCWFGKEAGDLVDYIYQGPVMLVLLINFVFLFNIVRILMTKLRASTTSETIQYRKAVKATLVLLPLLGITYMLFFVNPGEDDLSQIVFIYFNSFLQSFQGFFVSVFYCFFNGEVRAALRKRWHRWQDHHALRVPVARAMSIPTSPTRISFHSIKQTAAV

Assay [3] addresses T1, rCRFR1. The experiment in a line: cAMP stimulation / inhibition of oCRF-stimulated cAMP production in HEK-rCRFR1 cells. In kind it is cell-based. The following applies: for Emax: read-out: HEK-rCRFR1 cells rel. IA (relative intrinsic activity); for HEK-rCRFR1 cells rel. pot. (relative potency): oCRF alone = 1.00. As to the method:
as §3, §4

Assay [4] addresses T2, mCRFR2β. In words: Displacement of [^125I-Tyr^0]Svg from membranes of HEK-mCRFR2β cells. In kind it is binding. The following applies: for Selectivity: Kd(rCRFR1)(peptide)/Kd(rCRFR1)(astressin) × Kd(mCRFR2β)(astressin)/Kd(mCRFR2β)(peptide). The procedure:
as §1, §2

Assay [5] deals with T3, rat CRF receptor, type 1 (rCRFR1) (rat, UniProt P35353 24-415).
T3 sequence (looked up): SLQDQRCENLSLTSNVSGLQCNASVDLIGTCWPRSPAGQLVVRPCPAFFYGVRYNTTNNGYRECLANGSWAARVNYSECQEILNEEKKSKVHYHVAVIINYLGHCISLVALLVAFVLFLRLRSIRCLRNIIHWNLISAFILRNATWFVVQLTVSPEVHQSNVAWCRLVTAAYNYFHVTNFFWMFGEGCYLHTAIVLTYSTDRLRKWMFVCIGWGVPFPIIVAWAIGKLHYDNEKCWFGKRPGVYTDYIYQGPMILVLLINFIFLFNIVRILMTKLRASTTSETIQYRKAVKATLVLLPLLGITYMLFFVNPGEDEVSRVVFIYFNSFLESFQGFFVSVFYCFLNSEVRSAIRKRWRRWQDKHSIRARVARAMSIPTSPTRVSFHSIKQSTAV
In words: cell-based or functional assay.

The target of assay [6] is mouse CRF receptor, type 2β (mCRFR2β) (mouse) (UniProt Q60748). The experiment in a line: radioligand binding to membranes of HEK-mCRFR2β cells, displaced by Svg.
The target of assay [7] is T3, rat CRF receptor, type 1 (rCRFR1). The experiment in a line: cell-based or functional assay. The source holds these as a separate data set.
For assay [8] the target is unchanged. In words: cell-based or functional assay. This is another data set of the same source.
Assay [9] deals with mouse CRF receptor, type 2β (mCRFR2β) (mouse) (UniProt Q60748). The experiment in a line: Kd(rCRFR1)/Kd(mCRFR2β) of the peptide normalised to that of astressin; radioligand displacement. In general terms: Displacement assays read how much labelled ligand stays bound in the presence of the test substance.
In assay [10] the target is T3, rat CRF receptor, type 1 (rCRFR1). The experiment in a line: cell-based or functional assay. The source holds these as a separate data set.
Assay [11] has the same target. In words: displacement of [125I-Tyr0]oCRF from HEK-rCRFR1 membranes. The procedure:
as §1

Assay [12] has the same target. The experiment in a line: radioligand displacement; this end of the range tied by the Kd ratio of Table 3 (220.9/153.6). The procedure: as §1
Assay [13] concerns the target mouse CRF receptor, type 2β (mCRFR2β) (mouse) (UniProt Q60748). In words: radioligand displacement; this end of the range tied by the Kd ratio of Table 3 (20.8/3.5).
Where [14] appears, read: Table 4, 1 μM antagonist, cAMP production stimulated by 1 nM oCRF.

One may read the Kd as the free concentration of one partner at which half of the binding sites on the other are occupied at equilibrium, for simple one-to-one binding. As usually defined, the EC50 is the concentration giving half of the maximal effect. Consider `CC[C@H](C)[C@H](NC(=O)[C@H](CC(=O)O)NC(=O)[C@H](CC(C)C)NC(=O)[C@H](CC(C)C)NC(=O)[C@H](CCCCN)NC(=O)[C@H](CCCNC(=N)N)NC(=O)[C@H](CC(N)=O)NC(=O)[C@H](CO)NC(=O)[C@H](Cc1c[nH]cn1)NC(=O)[C@H](C)NC(=O)[C@H](CCC(N)=O)NC(=O)[C@H](CCC(N)=O)NC(=O)[C@H](C)NC(=O)[C@H](CC(C)C)NC(=O)[C@H](CCC(N)=O)NC(=O)[C@H](CC(=O)O)NC(=O)[C@H](C)NC(=O)[C@H](CCCCN)NC(=O)[C@@H](NC(=O)[C@H](CCSC)NC(=O)[C@H](CCC(=O)O)NC(=O)[C@H](CC(C)C)NC(=O)[C@@H](NC(=O)[C@H](CCC(=O)O)NC(=O)[C@H](CCCNC(=N)N)NC(=O)[C@H](CC(C)C)NC(=O)[C@H](CC(C)C)NC(=O)[C@H](Cc1c[nH]cn1)NC(=O)[C@H](Cc1ccccc1)NC(=O)[C@@H](NC(=O)[C@H](CC(C)C)NC(=O)[C@H](CC(=O)O)NC(=O)[C@H](CC(C)C)NC(=O)[C@H](CO)NC(=O)[C@@H](NC(=O)[C@@H]1CCCN1C(=O)[C@@H]1CCCN1C(=O)[C@H](CCC(=O)O)NC(=O)[C@H](CCC(N)=O)NC(=O)[C@@H](N)CO)[C@@H](C)CC)[C@@H](C)O)C(C)C)[C@@H](C)O)C(=O)N[C@@H](C)C(N)=O` [compound 1, oCRF, reference compound], for which the Kd in assay [1] (membranes of HEK-rCRFR1 cells, read-out: Kd, binding to rCRFR1) was determined as 0.6 ± 0.1 nM; in assay [4] (Table 1, [^125I-Tyr^0]Svg as competitive ligand, recombinant mCRFR2β, HEK 293 membranes, read-out: Kd(mCRFR2β)) it was 162 ± 37.6 nM. In addition, the EC50 in assay [2] (agonist) worked out at 11.8 ± 1.96 nM. The Emax at 0.001 µM in [3] (Table 2, 1 μM CRF antagonist alone, cAMP production in HEK-rCRFR1 cells, oCRF (1 nM) = 1.00, read-out: rCRFR1 % IA (intrinsic activity)) was found to be 100%. In addition, the “rCRFR1 relative in vitro potency” value in [3] (Table 2, 1 μM antagonist, cAMP production stimulated by 1 nM oCRF, oCRF alone = 1.00 (lower = stronger inhibition)) came out at 1.00. In addition, the Emax in assay [3] (Table 4, 1 μM CRF antagonist alone, cAMP production, oCRF = 1.00) stood at 100%. Also, the “HEK-rCRFR1 cells rel. pot. (relative potency)” value in [3] (setting [14]) came to 1.00. For the same molecule, the Selectivity in assay [4] (Table 1) and in assay [4] (Table 3) was 0.002 throughout.

As to `CC[C@H](C)[C@H](NC(=O)[C@@H](NC(=O)[C@H](CC(=O)O)NC(=O)[C@H](CC(C)C)NC(=O)[C@H](CC(C)C)NC(=O)[C@H](CC(C)C)NC(=O)[C@H](CCCNC(=N)N)NC(=O)[C@H](CC(N)=O)NC(=O)[C@H](CC(N)=O)NC(=O)[C@H](C)NC(=O)[C@H](C)NC(=O)[C@H](CCC(N)=O)NC(=O)[C@H](CCC(N)=O)NC(=O)[C@H](CCCCN)NC(=O)[C@H](CCC(=O)O)NC(=O)[C@H](CCCCN)NC(=O)[C@H](CCC(=O)O)NC(=O)[C@H](CCC(N)=O)NC(=O)[C@H](CCCCN)NC(=O)[C@H](CCC(=O)O)NC(=O)[C@@H](NC(=O)[C@H](CCC(=O)O)NC(=O)[C@@H](NC(=O)[C@H](CCSC)NC(=O)[C@H](CCCCN)NC(=O)[C@H](CCCNC(=N)N)NC(=O)[C@H](CC(C)C)NC(=O)[C@H](CC(C)C)NC(=O)[C@@H](N)Cc1ccc(O)cc1)[C@@H](C)CC)[C@@H](C)CC)[C@@H](C)O)C(N)=O` [compound 20, [Tyr^12]Svg(12-40)] (H-YLLRKMIEIEKQEKEKQQAANNRLLLDTI-NH2; N-terminus assumed), the Kd stood at 995 ± 337 nM in assay [1] and 428 ± 119 nM in [4]. For the same molecule, in [2] (Table 4, 10 nM antagonist, cAMP production stimulated by 1 nM Svg, Svg alone = 1.00), the “HEK-mCRFR2β cells rel. pot. (relative potency)” value is 0.80 ± 0.04. The Emax was found to be 0.6 ± 0.2% in [2] (read-out: HEK-mCRFR2β cells rel. IA (relative intrinsic activity)) and 6 ± 3% in [3]. Besides, the “HEK-rCRFR1 cells rel. pot. (relative potency)” value in [3] (setting [14]) came out at 0.90 ± 0.02. In assay [4] (N-terminal truncation by one amino acid and Glu^12 to tyrosine), the “high-affinity binding to mCRFR2β” value is recorded as “completely abolished”. In assay [4] (Table 3), this molecule showed a Selectivity of 1.63.

α-helical CRF(9-41) (peptide) displayed a % IA (intrinsic activity), cAMP production, HEK-rCRFR1 cells (relative, oCRF = 1.00) in [5] of 0.16.

B1: [^125I-Tyr^0]Svg (peptide)
peptide: YZGPPISIDLSLELLRKMIEIEKQEKEKQQAANNRLLLDTI
modifications: 125I-iodinated Tyr at position 0
B1 returned a specific binding in [6] of 94%.

B2: ovine corticotropin-releasing factor (oCRF) (peptide)
peptide: SQEPPISLDLTFHLLREVLEMTKADQLAQQAHSNRKLLDIA
modifications: ends and bridges not checked
notes: Synthetic peptide (Fmoc chemistry on TentaGel S RAM resin); also called compound 1
For B2, in assay [7], the “% IA (intrinsic activity), cAMP production, HEK-rCRFR1 cells” value was 1 relative, oCRF = 1.00. In addition, in assay [8], the “rel. IA (relative intrinsic activity), cAMP production, HEK-rCRFR1 cells” value (shortened to “rel. IA (relative intrinsic activity)”) was 1 relative, oCRF = 1.00. This molecule returned a Selectivity in assay [9] of 0.002. In addition, the “EC50, cAMP accumulation in HEK-rCRFR1 cells” value in assay [10] is 0.41 nM.

B3: [Tyr^11, His^12]Svg(11-40) (peptide)
peptide: YHLLRKMIEIEKQEKEKQQAANNRLLLDTI
modifications: ends and bridges not checked
notes: also called compound 18
B3 gave a Kd in [11] of 221 nM. In [8], the “rel. IA (relative intrinsic activity)” value was 0.03 relative, oCRF = 1.00 and the “rel. pot. (relative potency), inhibition of oCRF-stimulated cAMP production, HEK-rCRFR1 cells” value was 0.79 relative, oCRF = 1.00. Also, the “fold decrease of binding affinity against antisauvagine-30 (compound 11)” value in [12] is 1.4 to 5.9 fold. In [9], this molecule came in with a Selectivity of 31.6.

B4: [Tyr^11]Svg(11-40) (peptide)
peptide: YELLRKMIEIEKQEKEKQQAANNRLLLDTI
modifications: ends and bridges not checked
notes: also called compound 19
Take B4: in [11], the affinity, expressed as Kd, was 977 nM. In assay [8], the “rel. IA (relative intrinsic activity)” value was 0.09 relative, oCRF = 1.00 and the “rel. pot. (relative potency), inhibition of oCRF-stimulated cAMP production, HEK-rCRFR1 cells” value is 0.82 relative, oCRF = 1.00. Also, the fold decrease of binding affinity against [DPhe^11]Svg(11-40) (compound 12) in assay [13] was 1.4 to 5.9 fold. In [9], this molecule gave a Selectivity of 33.
